# Measured values: patent US9232796B2, “Herbicidal compositions comprising 4-amino-3-chloro-5-fluoro-6-(4-chloro-2-fluoro-3-methoxyphenyl) pyridine-2-carboxylic acid or a derivative thereof and acetyl-CoA carboxylase (ACCase) inhibitors” (DOW AGROSCIENCES LLC, priority 2012, dated 2016)
# Columns and labels:
# [1] = system: ISCRU; test: Example I postemergence foliar-applied, greenhouse, direct seeded rice weeds; format: in vivo, Ischaemum rugosum Salisb.
# Source text: (§1) Seeds or nutlets of the desired test plant species were planted in a soil matrix prepared by mixing a loam or sandy loam soil (e.g., 28.6 percent silt, 18.8 percent clay, and 52.6 percent sand, with a pH of about 5.8 and an organic matter content of about 1.8 percent) and calcareous grit in an 80 to 20 ratio. The soil matrix was contained in plastic pots with a volume of 1 quart and a surface area of 83.6 square centimeters (cm^2). When required to ensure good germination and healthy plants, a fungicide treatment and/or other chemical or physical treatment was applied. The plants were grown for 8-22 days in a greenhouse with an approximate 14 hr. photoperiod which was maintained at about 29° C. during the day and 26° C. during the night. Nutrients (Peters Excel® 15-5-15 5-Ca 2-Mg and iron chelate) were applied in the irrigation solution as needed and water was added on a regular basis. Supplemental lighting was provided with overhead metal halide 1000-Watt lamps as necessary. The plants were employed for testing when they reached the first through fourth true leaf stage.
# (§2) Treatments consisted of the acid or esters of 4-amino-3-chloro-5-fluoro-6-(4-chloro-2-fluoro-3-methoxy-phenyl)pyridine-2-carboxylic acid (Compound A), each formulated as an SC (suspension concentrate), and various herbicidal components alone and in combination.
# (§3) Other herbicidal components were applied on an acid equivalent (ae) or active ingredient (ai) basis and included acetyl coA carboxylase (ACCase)-inhibiting herbicides (cyclohexanedione and aryloxyphenoxypropionate chemical classes) cyhalofop-butyl formulated as Clincher® SF (285 gr ai/L EC), diclofop-methyl formulated as Hoelon® 3EC, fenoxaprop-p-ethyl+isoxadifen-ethyl formulated as RiceStar® HT (0.58 lb./gal EC), fenoxaprop-p-ethyl+mefenpyr diethyl formulated as Puma® IEC, metamifop formulated as Metamifop EC, haloxyfop-methyl formulated as Gallant Super®, fluazifop-p-butyl formulated as Fusilade® DX, quizalofop-p-ethyl formulated as Assure® II, profoxydim formulated as Aura® 20EC, clethodim applied as Intensity®, sethoxydim formulated as Poast®, and tralkoxydim formulated as Achieve®.
# (§4) Treatment requirements were calculated based upon the rates being tested, the concentration of active ingredient or acid equivalent in the formulation, and a 12 mL application volume at a rate of 187 L/ha.
# (§5) For treatments comprised of formulated compounds, measured amounts of compounds were placed individually in 25 mL glass vials and diluted in a volume of 1.25% (v/v) Agri-Dex® crop oil concentrated to obtain 12× stock solutions. […] Application solutions were prepared by adding an appropriate amount of each stock solution (e.g., 1 mL) and diluted to the appropriate final concentrations with the addition of 10 mL of an aqueous mixture of 1.25% (v/v) crop oil concentrate so that the final spray solutions contained 1.25+/−0.05% (v/v) crop oil concentrate.
# All stock solutions and applications solutions were visually inspected for compound compatibility prior to application. […]
# (§6) The treated plants and control plants were placed in a greenhouse as described above and watered by sub-irrigation to prevent wash-off of the test compounds. After approximately 3 weeks, the condition of the test plants as compared with that of the untreated plants was determined visually and scored on a scale of 0 to 100 percent where 0 corresponds to no injury or growth inhibition and 100 corresponds to complete kill. […]
# [2] = system: ECHCO; test: as above; format: in vivo, Echinochloa colona (L.) Link
# Source text: as §1, §2, §3, §4, §5
# All stock solutions and applications solutions were visually inspected for compound compatibility prior to application. Spray solutions were applied to the plant material with an overhead Mandel track sprayer equipped with a 8002E nozzles calibrated to deliver 187 L/ha over an application area of 0.503 m^2 at a spray height of 18 to 20 inches (46 to 50 cm) above average plant canopy height. Control plants were sprayed in the same manner with the solvent blank.
# as §6
# [3] = system: CYPRO; test: Example II in-water applied, greenhouse, transplanted paddy rice weeds; format: in vivo, Cyperus rotundus L.
# Experimental: Weed seeds or nutlets of the desired test plant species were planted in puddled soil (mud) prepared by mixing a shredded, non-sterilized mineral soil (50.5 percent silt, 25.5 percent clay, and 24 percent sand, with a pH of about 7.6 and an organic matter content of about 2.9 percent) and water at a 1:1 volumetric ratio. The prepared mud was dispensed in 365 mL aliquots into 16-ounce (oz.) non-perforated plastic pots with a surface area of 86.59 square centimeters (cm^2) leaving a headspace of 3 centimeters (cm) in each pot. Mud was allowed to dry overnight prior to planting or transplanting. Rice seeds were planted in Sun Gro MetroMix® 306 planting mixture, which typically has a pH of 6.0 to 6.8 and an organic matter content of about 30 percent, in plastic plug trays. Seedlings at the second or third leaf stage of growth were transplanted into 860 mL of mud contained in 32-oz. non-perforated plastic pots with a surface area of 86.59 cm^2 4 days prior to herbicide application. The paddy was created by filling the headspace of the pots with 2.5 to 3 cm of water. […] The plants were grown for 4-22 days in a greenhouse with an approximate 14 hr. photoperiod which was maintained at about 29° C. during the day and 26° C. during the night. Nutrients were added as Osmocote® (19:6:12, N:P:K+minor nutrients) at 2 g per 16-oz. pot and 4 g per 32-oz. pot. Water was added on a regular basis to maintain the paddy flood, and supplemental lighting was provided with overhead metal halide 1000-Watt lamps as necessary. The plants were employed for testing when they reached the first through fourth true leaf stage.
# Treatments consisted of the acid or esters of 4-amino-3-chloro-5-fluoro-6-(4-chloro-2-fluoro-3-methoxy-phenyl)pyridine-2-carboxylic acid (compound A) each formulated as an SC (suspension concentrate) and various herbicidal components alone and in combination.
# For formulated compounds, a measured amount was placed in an individual 100 or 200 mL glass vial and was dissolved in a volume of 1.25% (v/v) Agri-Dex® crop oil concentrate to obtain application solutions.
# (§7) Applications were made by injecting with a pipetter appropriate amounts of the application solutions, individually and sequentially, into the aqueous layer of the paddy. Control plants were treated in the same manner with the solvent blank. Applications were made so that all treated plant material received the same concentrations of acetone and crop oil concentrate.
# (§8) The treated plants and control plants were placed in a greenhouse as described above and water was added as needed to maintain a paddy flood. After approximately 3 weeks the condition of the test plants as compared with that of the untreated plants was determined visually and scored on a scale of 0 to 100 percent where 0 corresponds to no injury or growth inhibition and 100 corresponds to complete kill.
# (§9) Colby's equation was used to determine the herbicidal effects expected from the mixtures (Colby, S. R. 1967. Calculation of the synergistic and antagonistic response of herbicide combinations. Weeds 15:20-22.).
# (§10) The following equation was used to calculate the expected activity of mixtures containing two active ingredients, A and B: Expected=A+B−(A×B/100)
# [4] = system: ECHCG; test: as above; format: in vivo, Echinochloa crusgalli (L.) Beauv.
# Experimental: as §7, §8, §9, §10
smiles,measurement,setting,value
"COc1c(Cl)ccc(-c2nc(C(=O)O)c(Cl)c(N)c2F)c1F [Compound A Acid, 4-amino-3-chloro-6-(4-chloro-2-fluoro-3-methoxyphenyl)-5-fluoropyridine-2-carboxylic acid]",Visual Weed Control (%) - 26 DAA ISCRU Obs,[1]; 8.75 gae/ha,37%
same,Visual Weed Control (%) - 26 DAA ISCRU Obs,[1]; 17.5 gae/ha,63%
same,Visual Weed Control (%) - 20 DAA ECHCO Obs,[2]; 4.38 gae/ha,40%
same,Visual Weed Control (%) - 20 DAA ECHCO Obs,[2]; 8.75 gae/ha,60%
same,Visual Weed Control (%) - 20 DAA ECHCO Obs,[2]; 17.5 gae/ha,85%
same,Visual Weed Control (%) - 21 DAA CYPRO Obs,[3]; 8.75 gae/ha,0%
same,Visual Weed Control (%) - 21 DAA CYPRO Obs,[3]; Compound A Acid 8.75 gae/ha,0%
same,Visual Weed Control (%) - 21 DAA CYPRO Obs,[3]; Compound A Acid 17.5 gae/ha,30%
same,Visual Weed Control (%) - 21 DAA CYPRO Obs,[3]; Compound A Acid 35 gae/ha,85%
same,Visual Weed Control (%) - 22 DAA ECHCG Obs,[4]; 16 gae/ha,20%
same,Visual Weed Control (%) - 22 DAA ECHCG Obs,[4]; 32 gae/ha,25%
"COc1c(Cl)ccc(-c2nc(C(=O)OCc3ccccc3)c(Cl)c(N)c2F)c1F [Compound A Benzyl Ester, benzyl ester of 4-amino-3-chloro-5-fluoro-6-(4-chloro-2-fluoro-3-methoxy-phenyl)pyridine-2-carboxylic acid]",Visual Weed Control (%) - 26 DAA ISCRU Obs,[1]; 8.75 gae/ha,18%
same,Visual Weed Control (%) - 26 DAA ISCRU Obs,[1]; 17.5 gae/ha,33%
same,Visual Weed Control (%) - 21 DAA ECHCO Obs,[2]; 8 gae/ha,40%
same,Visual Weed Control (%) - 21 DAA ECHCO Obs,[2]; 16 gae/ha,70%
same,Visual Weed Control (%) - 21 DAA ECHCO Obs,[2]; 32 gae/ha,95%
same,Visual Weed Control (%) - 20 DAA CYPRO Obs,[3]; 4.38 gae/ha,50%
same,Visual Weed Control (%) - 21 DAA CYPRO Obs,[3]; 4.38 gae/ha,20%
same,Visual Weed Control (%) - 20 DAA CYPRO Obs,[3]; 8.75 gae/ha,100%
same,Visual Weed Control (%) - 20 DAA CYPRO Obs,[3]; 17.5 gae/ha,100%
same,Visual Weed Control (%) - 21 DAA ECHCG Obs,[4]; 4.38 gae/ha,15%
same,Visual Weed Control (%) - 22 DAA ECHCG Obs,[4]; 8 gae/ha,50%
same,Visual Weed Control (%) - 22 DAA ECHCG Obs,[4]; 16 gae/ha,60%
same,Visual Weed Control (%) - 21 DAA ECHCG Obs,[4]; 17.5 gae/ha,75%
same,Visual Weed Control (%) - 22 DAA ECHCG Obs,[4]; 32 gae/ha,99%
"CCCCOC(=O)[C@@H](C)Oc1ccc(Oc2ccc(C#N)cc2F)cc1 [Cyhalofop-butyl, butyl(2R)-2-[4-(4-cyano-2-fluorophenoxy)phenoxy]propanoate, reference compound]",Visual Weed Control (%) - 26 DAA ISCRU Obs,[1]; 140 gai/ha,10%
"CCC/C(=N\OCC(C)Oc1ccc(Cl)cc1)C1=C(O)CC(C2CCCSC2)CC1=O (centres unmarked) [Profoxydim, 2-[1-[[2-(4-chlorophenoxy)propoxy]imino]butyl]-3-hydroxy-5-(tetrahydro-2H-thiopyran-3-yl)-2-cyclohexen-1-one, reference compound]",Visual Weed Control (%) - 20 DAA ECHCO Obs,[2]; 12.5 gai/ha,70%
same,Visual Weed Control (%) - 22 DAA ECHCG Obs,[4]; 50 gai/ha,30%
"CCOC(=O)[C@@H](C)Oc1ccc(Oc2cnc3cc(Cl)ccc3n2)cc1 [Quizalofop-p-ethyl, ethyl(2R)-2-[4-[(6-chloro-2-quinoxalinyl)oxy]phenoxy]propanoate, reference compound]",Visual Weed Control (%) - 21 DAA CYPRO Obs,[3]; 15 gai/ha,0%
same,Visual Weed Control (%) - 21 DAA CYPRO Obs,[3]; 30 gai/ha,0%
same,Visual Weed Control (%) - 21 DAA ECHCG Obs,[4]; 15 gai/ha,50%
same,Visual Weed Control (%) - 21 DAA ECHCG Obs,[4]; 30 gai/ha,100%
